The results in this text go back to ChEMBL document CHEMBL1201862, “PubChem BioAssay data set” (2004).

The source made the active and inactive calls. A value given as a limit tells only on which side of the number the result lay.

The target in one experiment is T1, Cysteine protease ATG4B (Homo sapiens, UniProt Q9Y4P1).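 Note: Fluorescence-based dose-response confirmation assay measuring inhibition of ATG4B activity.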
T1 sequence (Q9Y4P1 whole entry): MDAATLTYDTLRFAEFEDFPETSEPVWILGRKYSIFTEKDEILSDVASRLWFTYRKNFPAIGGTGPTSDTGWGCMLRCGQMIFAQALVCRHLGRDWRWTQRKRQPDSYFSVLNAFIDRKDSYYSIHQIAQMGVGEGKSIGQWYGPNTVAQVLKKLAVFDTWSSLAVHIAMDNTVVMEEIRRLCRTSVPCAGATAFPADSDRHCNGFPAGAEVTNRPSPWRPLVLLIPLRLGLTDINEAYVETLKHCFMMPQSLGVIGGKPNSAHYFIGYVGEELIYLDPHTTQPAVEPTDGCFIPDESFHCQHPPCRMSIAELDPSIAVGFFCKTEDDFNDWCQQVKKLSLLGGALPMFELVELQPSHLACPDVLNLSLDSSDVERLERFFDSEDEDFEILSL
The class given is functional.

The nature of experiment [1]: viability of uninfected HEp-2 cells – cell-based, HTS, cytotoxicity control for RSV inhibitor project, dose response (AID 2410). As to conditions: human respiratory syncytial virus. The class given is functional.
The target of the next experiment is Phospholipase A2 (Homo sapiens, UniProt P04054). The class given is functional.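 Note: confirmatory dose-response counterscreen on phospholipase A2, testing hits that came from an ultra-high-throughput screen for ATG4B inhibitors.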
In another experiment the test system is Streptococcus. The experiment can be described thus: GAS UMAA2166 growth inhibition – luminescence, BacTiterGlo, counter-screen for streptokinase expression inhibitor project, dose response (AID 1915).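 Note: potency for reduction of bacterial viability or growth.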 The class given is functional, organism-based. (In general: Counterscreens check selectivity or assay interference.)
In a further experiment the target is T2, Caspase-3 (Homo sapiens, UniProt P42574).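 Note: Dose-response selectivity test against caspase-3 for candidate inhibitors of sentrin-specific proteases (SENPs).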
T2 sequence (P42574 whole entry): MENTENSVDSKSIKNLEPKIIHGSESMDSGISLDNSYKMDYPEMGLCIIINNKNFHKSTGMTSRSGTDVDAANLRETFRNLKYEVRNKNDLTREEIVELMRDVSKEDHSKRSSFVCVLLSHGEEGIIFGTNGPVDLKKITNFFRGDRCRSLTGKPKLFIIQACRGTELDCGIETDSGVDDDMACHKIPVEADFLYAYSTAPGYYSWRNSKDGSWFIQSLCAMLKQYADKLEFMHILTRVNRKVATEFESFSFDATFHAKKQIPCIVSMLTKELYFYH
The class given is functional.

In a further experiment the target is T3, Streptokinase A (Streptococcus pyogenes serotype M1, UniProt P10520).
T3 sequence (P10520 whole entry): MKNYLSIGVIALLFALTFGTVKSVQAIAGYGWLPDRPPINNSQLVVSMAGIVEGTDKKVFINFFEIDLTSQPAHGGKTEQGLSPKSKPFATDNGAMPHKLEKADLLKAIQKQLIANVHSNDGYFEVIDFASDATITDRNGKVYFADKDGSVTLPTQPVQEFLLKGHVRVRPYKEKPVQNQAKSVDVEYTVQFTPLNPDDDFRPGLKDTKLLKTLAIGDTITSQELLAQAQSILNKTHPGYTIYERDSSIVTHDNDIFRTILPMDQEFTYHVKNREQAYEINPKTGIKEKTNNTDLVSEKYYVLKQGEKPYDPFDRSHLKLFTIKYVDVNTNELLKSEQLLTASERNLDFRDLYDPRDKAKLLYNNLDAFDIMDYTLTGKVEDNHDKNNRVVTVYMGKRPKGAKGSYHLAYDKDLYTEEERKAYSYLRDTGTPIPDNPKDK
Description: viability-normalized secreted streptokinase activity reduction – plasminogen activation absorbance, OD405, dose response (AID 1914).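 Note: secreted streptokinase activity via plasminogen activation per viability signal from cell pellet.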 The class given is functional, Streptococcus pyogenes M1 GAS.

In experiment [2] the target is T4, Sentrin-specific protease 6 (Homo sapiens, UniProt Q9GZR1).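 Note: Luminescence-based dose-response confirmatory assay of SENP6 inhibition, following up an ultra-high-throughput screen.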
T4 sequence (Q9GZR1 whole entry): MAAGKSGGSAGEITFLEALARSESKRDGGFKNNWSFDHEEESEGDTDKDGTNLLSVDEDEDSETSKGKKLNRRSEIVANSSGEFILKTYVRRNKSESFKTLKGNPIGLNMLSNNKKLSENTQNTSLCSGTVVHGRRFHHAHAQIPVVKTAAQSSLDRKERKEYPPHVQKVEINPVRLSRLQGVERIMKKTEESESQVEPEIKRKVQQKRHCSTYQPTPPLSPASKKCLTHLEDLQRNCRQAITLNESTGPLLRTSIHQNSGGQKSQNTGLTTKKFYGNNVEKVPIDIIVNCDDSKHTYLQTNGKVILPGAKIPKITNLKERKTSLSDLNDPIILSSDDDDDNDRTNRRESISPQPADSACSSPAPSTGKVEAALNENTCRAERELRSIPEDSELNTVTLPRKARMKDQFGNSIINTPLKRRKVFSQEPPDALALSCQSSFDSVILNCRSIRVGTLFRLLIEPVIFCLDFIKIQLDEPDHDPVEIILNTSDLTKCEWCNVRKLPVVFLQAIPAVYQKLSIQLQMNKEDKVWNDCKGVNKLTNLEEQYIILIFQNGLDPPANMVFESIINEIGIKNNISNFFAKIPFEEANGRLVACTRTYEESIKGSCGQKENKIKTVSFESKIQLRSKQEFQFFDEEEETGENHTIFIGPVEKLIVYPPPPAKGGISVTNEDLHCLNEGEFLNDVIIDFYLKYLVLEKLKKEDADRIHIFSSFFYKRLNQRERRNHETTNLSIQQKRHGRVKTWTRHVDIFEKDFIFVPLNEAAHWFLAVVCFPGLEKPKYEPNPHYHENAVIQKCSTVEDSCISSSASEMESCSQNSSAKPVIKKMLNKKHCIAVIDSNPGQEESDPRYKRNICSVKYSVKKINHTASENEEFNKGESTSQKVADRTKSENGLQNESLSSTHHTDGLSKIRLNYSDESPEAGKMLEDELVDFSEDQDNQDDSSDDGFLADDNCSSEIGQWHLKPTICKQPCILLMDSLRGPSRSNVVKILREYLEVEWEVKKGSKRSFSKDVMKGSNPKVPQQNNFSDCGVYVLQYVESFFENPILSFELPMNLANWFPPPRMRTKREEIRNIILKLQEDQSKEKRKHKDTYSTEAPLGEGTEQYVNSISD
The class given is functional.

Experiment [3] deals with T5, Sentrin-specific protease 8 (Homo sapiens, UniProt Q96LD8).
T5 sequence (Q96LD8 whole entry): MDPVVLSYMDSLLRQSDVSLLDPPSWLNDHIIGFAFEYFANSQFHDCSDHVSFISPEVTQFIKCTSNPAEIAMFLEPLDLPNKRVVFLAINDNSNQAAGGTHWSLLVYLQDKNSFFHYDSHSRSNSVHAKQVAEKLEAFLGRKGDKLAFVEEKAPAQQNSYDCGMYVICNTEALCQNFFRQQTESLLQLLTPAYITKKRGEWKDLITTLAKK
The class given is functional.

For experiment [4], the system named is Streptococcus sp. 'group A'. The experiment can be described thus: Streptococcus pyogenes SK(-)GAS viability under kanamycin – luminescence, BacTiterGlo, confirmation, counter-screen for streptokinase expression inhibitor project, dose response (AID 1900). The class given is functional, organism-based.
The target of experiment [5] is T6, Sentrin-specific protease 7 (Homo sapiens, UniProt Q9BQF6).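 Note: Luminescence-based dose-response confirmation of ultra-high-throughput screening hits, measuring inhibition of SENP7.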
T6 sequence (Q9BQF6 whole entry): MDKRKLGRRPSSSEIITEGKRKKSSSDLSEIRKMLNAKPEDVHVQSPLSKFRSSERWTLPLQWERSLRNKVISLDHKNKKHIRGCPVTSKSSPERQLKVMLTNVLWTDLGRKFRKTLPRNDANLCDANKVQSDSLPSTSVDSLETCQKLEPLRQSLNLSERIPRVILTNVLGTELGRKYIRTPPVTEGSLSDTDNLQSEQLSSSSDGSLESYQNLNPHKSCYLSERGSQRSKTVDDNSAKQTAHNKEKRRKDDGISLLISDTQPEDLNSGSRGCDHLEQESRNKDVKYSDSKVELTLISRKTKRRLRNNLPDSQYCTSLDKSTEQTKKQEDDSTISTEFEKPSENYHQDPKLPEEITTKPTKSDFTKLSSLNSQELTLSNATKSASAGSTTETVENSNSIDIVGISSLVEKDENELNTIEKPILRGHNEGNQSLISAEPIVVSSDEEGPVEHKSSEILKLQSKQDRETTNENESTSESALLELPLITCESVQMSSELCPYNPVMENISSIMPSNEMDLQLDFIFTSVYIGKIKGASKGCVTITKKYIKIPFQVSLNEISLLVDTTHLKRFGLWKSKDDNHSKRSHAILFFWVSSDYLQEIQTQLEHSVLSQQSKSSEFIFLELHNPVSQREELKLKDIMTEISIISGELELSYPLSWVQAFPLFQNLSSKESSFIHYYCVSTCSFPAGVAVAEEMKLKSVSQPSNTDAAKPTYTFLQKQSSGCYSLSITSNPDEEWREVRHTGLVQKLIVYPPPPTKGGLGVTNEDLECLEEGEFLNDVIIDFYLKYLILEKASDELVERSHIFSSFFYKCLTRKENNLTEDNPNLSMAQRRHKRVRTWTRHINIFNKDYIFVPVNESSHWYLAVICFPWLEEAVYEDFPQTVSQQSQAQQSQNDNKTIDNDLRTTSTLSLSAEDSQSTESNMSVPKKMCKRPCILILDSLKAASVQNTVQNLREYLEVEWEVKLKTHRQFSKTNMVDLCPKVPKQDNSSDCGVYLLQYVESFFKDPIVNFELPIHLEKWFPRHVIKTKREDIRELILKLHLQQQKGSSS
The class given is functional.

The next experiment concerns the target T7, Aminopeptidase N (Plasmodium falciparum FcB1/Columbia, UniProt O96935).
T7 sequence (O96935 whole entry): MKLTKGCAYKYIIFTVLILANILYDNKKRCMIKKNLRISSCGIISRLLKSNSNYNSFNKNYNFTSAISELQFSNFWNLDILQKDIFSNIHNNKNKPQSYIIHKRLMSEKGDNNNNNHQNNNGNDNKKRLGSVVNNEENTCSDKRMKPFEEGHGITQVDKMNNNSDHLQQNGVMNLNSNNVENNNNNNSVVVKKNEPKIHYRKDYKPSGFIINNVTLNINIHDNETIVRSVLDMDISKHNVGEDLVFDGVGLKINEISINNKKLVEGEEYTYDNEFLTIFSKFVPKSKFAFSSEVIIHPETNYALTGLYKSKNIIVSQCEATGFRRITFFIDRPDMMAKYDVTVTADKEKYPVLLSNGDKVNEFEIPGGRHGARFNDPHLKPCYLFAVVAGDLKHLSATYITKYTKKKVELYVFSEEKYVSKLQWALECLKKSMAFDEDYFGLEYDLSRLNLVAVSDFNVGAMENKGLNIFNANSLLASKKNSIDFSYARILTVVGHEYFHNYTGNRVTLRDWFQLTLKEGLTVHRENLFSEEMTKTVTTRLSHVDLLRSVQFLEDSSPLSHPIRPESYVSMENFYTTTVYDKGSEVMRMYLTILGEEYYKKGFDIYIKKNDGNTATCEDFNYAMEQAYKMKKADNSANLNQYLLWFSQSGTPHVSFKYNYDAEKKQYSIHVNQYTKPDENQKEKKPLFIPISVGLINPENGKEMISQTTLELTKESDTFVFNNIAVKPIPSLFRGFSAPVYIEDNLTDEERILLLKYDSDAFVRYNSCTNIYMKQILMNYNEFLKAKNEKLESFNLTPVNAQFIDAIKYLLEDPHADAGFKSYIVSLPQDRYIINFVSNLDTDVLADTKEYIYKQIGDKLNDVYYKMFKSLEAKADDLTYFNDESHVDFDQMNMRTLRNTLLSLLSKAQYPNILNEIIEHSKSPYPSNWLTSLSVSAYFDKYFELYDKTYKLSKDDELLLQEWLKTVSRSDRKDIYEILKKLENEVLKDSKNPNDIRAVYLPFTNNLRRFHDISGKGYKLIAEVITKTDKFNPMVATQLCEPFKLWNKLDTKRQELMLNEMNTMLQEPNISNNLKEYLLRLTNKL
The experiment can be described thus: malaria alanyl aminopeptidase activity blockers – biochemical, fluorogenic H-Leu-NHMec substrate, 1536-well (AID 1445). Details: species or system Plasmodium falciparum 3D7, 3D7.

For experiment [6], the target named is Heat shock protein HSP 90-alpha (Homo sapiens, UniProt P07900). The class given is functional, organism-based.
The test system of the next experiment is H9c2. Description: cells. The class given is functional, cell-based. As to conditions: Rattus norvegicus, H9c2, Myocardium.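 Note: confirmatory concentration-response retest of ultra-high-throughput screening hits for modulation of myocardial damage; cell death induced by hydrogen peroxide oxidative stress; compound pretreatment for 60 min then peroxide exposure for 2 h; potency is for protecting the cells against peroxide damage rather than for killing them.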

Chain of Phospholipase A2 (P04054 whole entry): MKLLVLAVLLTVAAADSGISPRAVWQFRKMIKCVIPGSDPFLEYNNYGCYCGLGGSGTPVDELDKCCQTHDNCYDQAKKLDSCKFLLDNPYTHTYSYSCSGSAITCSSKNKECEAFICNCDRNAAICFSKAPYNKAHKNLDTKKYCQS

With `Cc1ccc(S(=O)(=O)Nc2ccccc2/C=N/c2nc3ccccc3n2C(C)C)cc1`, the IC50 (in general, the concentration that inhibits the measured activity by half) was 15.1 µM (active) at Cysteine protease ATG4B and 13.2 µM (active) at Phospholipase A2. In addition, in experiment [1], the CC50 (in general, the concentration that lowers cell viability or growth by half) is 14.9 µM (active).

For the molecule `O=C(Nc1nc2c(cc3c4c(cccc42)CC3)s1)c1ccccc1Cl`, the IC50 on Cysteine protease ATG4B was > 80 µM (inactive); at Phospholipase A2, 15.7 µM (active).

Take `OC(c1ccc(OCc2ccccc2)cc1)c1nnc(-c2ccccc2)o1` (configuration not stated): the results for the EC50 (with Streptococcus; at Streptokinase A; in [4]) were > 150 µM (not active), 77.8 µM (active) and 19 µM (active), respectively. Besides, the IC50 at Caspase-3 is 69.2 µM (active); in experiment [2], 33.2 µM (active); in experiment [3], 75.6 µM (active); in [5] it was 12.8 µM (active).

Consider `Cc1cccc(C)c1OCc1nc2ccccc2c(=O)n1/N=C/c1ccc(OCC(=O)O)cc1`, for which the IC50 on Cysteine protease ATG4B was 14.7 µM (active); on Phospholipase A2 it was 9.81 µM (active); on Aminopeptidase N it was < 1 µM (active).

As for `C=CCn1c(-c2oc3nc(-c4ccccc4)cc(-c4ccccc4)c3c2N)n[nH]c1=S`, the IC50 on Cysteine protease ATG4B is 21.5 µM (inactive); on Phospholipase A2, 20.7 µM (inactive).

Take `Cc1nc(N/N=C\c2ccc3c(c2)OCO3)sc1C`: the EC50 (commonly the concentration at which the effect is half-maximal) in the experiment with Streptococcus was 31.7 µM (active); at Streptokinase A it was > 150 µM (not active); in experiment [4], 23.6 µM (active). The IC50 is 33.2 µM (active) on Caspase-3, 39.1 µM (active) in experiment [2], 72.7 µM (active) in experiment [3] and 12 µM (active) in [5].

For the molecule `C=CCn1c(C)cc(C(=O)CSc2nnc(NCc3ccccc3)s2)c1C`, in [6], the concentration at half-maximal activity (AC50) (as a rule, the midpoint of the concentration-response curve, whichever way the signal moves) is 4.03 µM (active).

On to `CN(C)S(=O)(=O)c1ccc2[nH]cc(/C=C/c3nc4ccccc4c(=O)n3-c3ccccc3)c2c1`, for which the IC50 is 18.6 µM (active) at Cysteine protease ATG4B, 46.6 µM (inactive) at Phospholipase A2 and > 79 µM (inactive) with H9c2.

Regarding `COc1ccc2oc3ccc(OC)cc3c(=O)c2c1`, the 50% inhibitory concentration (IC50) at Caspase-3 is 11 µM (active); in [2] it was 15.1 µM (active); in experiment [3] it was 69.1 µM (active); in [5], 9.8 µM (active).
